According to patent publication US10941158B2, “Pyrazole ACC inhibitors and uses thereof” (Gilead Apollo, LLC, priority 2015, dated 2021):
In brackets after ≈: the same amount, converted by molar mass. Read-outs that look alike come from different tables or passages of the source.

Assays:
[1] = tested on: C. albicans ATCC 90028; experiment: Anti-Fungal (Candida) Activity Assay, broth microtiter MIC; format: cell-based; details: read-out: MIC C. albicans ATCC 90028
How it was run: (§1)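 In CLSI M27-A3 microtiter plates, yeast from overnight agar culture is inoculated in RPMI 1640–MOPS at a standard-curve density. The MIC is the endpoint scored visually against growth control at 48 h.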

[2] = tested on: C. krusei ATCC 6258; experiment: as above; format: cell-based; details: Pichia kudriavzevii, read-out: MIC C. krusei ATCC 6258
How it was run: as §1

[3] = tested on: C. parapsilosis ATCC 22019; experiment: as above; format: cell-based; details: Lodderomyces parapsilosis, read-out: MIC C. parapsilosis ATCC 22019
How it was run: as §1

[4] = biological target: human (hACC2) ACC2 (Homo sapiens, UniProt O00763); experiment: In vitro Acetyl-CoA Carboxylase (ACC) inhibition assay (ADP-Glo), hACC2; format: biochemical
Procedure: The detailed procedure is as follows. […] 10 μL ADP glo reagent was added. […] 20 μL kinase detection reagent was added.
“NA” stands for “not assayed.”

[5] = biological target: fungal (fACC2) ACC2 (UniProt Q00955); details: read-out: fACC2 IC50; fungal ACC2, ADP-Glo
[6] = tested on: Rhizoctonia solani (Rs); experiment: Growth inhibition assay of fungal pathogens; format: cell-based; details: 48 h, read-out: Concentration at 90% Inhibition Rs
How it was run: (§2)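 Spores of Fm, Bc and Dm were suspended in 17% V8 liquid medium, while Rs was inoculated as 1.5 mm mycelial plugs in ¼ PDB. Compounds were tested at final 50, 10 and 2 ppm or 2, 0.4 and 0.08 ppm. Percent growth inhibition at 48 h versus 2% DMSO came from OD600 and visual ratings.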

[7] = tested on: Botrtyis cinerea (Bc); experiment: Growth inhibition assay of fungal pathogens; format: cell-based; details: 48 h, read-out: Concentration at 90% Inhibition Bc
How it was run: as §2

[8] = tested on: Fusarium moniliforme (Fm); experiment: Growth inhibition assay of fungal pathogens; format: cell-based; details: for IC90: Fusarium verticillioides, 48 h, read-out: Concentration at 90% Inhibition Fm
How it was run: as §2

[9] = tested on: Fusarium virguliforme (Fv); experiment: Growth inhibition assay of fungal pathogens; format: cell-based; details: 48 h
How it was run: (§3)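 Compounds in DMSO tested at final 50, 10, 2 ppm or 2, 0.4, 0.08 ppm. Spores in 17% V8 medium, or 1.5 mm mycelial plugs in ¼ PDB for R. solani, incubated with compound. OD600 and visual ratings at 48 h versus 2% DMSO control gave percent growth inhibition.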

[10] = tested on: Septoria tritici (St); experiment: Growth inhibition assay of fungal pathogens; format: cell-based; details: for IC90: Zymoseptoria tritici, read-out: Concentration at 90% Inhibition St
How it was run: as §3

[11] = tested on: Phytophthora capsici (Pc); experiment: Growth inhibition assay of fungal pathogens; format: cell-based; details: for IC90: Phytophthora capsici, read-out: Concentration at 90% Inhibition Pc
How it was run: as §3

[12] = tested on: Collectotrichum graminicola (Cg); experiment: Growth inhibition assay of fungal pathogens; format: cell-based; details: 48 h, read-out: Concentration at 90% Inhibition Cg
How it was run: as §3

[13] = tested on: Diplodia maydis (Dm); experiment: Growth inhibition assay of fungal pathogens; format: cell-based; details: Stenocarpella maydis, 48 h, read-out: Concentration at 90% Inhibition Dm
How it was run: as §2

[14] = read-out: Concentration at 90% Inhibition Fv, Table 4a, 48 hours
[15] = read-out: Concentration at 90% Inhibition Fv, Table 4b, 48 hours

Chain of human (hACC2) ACC2 (O00763 whole entry): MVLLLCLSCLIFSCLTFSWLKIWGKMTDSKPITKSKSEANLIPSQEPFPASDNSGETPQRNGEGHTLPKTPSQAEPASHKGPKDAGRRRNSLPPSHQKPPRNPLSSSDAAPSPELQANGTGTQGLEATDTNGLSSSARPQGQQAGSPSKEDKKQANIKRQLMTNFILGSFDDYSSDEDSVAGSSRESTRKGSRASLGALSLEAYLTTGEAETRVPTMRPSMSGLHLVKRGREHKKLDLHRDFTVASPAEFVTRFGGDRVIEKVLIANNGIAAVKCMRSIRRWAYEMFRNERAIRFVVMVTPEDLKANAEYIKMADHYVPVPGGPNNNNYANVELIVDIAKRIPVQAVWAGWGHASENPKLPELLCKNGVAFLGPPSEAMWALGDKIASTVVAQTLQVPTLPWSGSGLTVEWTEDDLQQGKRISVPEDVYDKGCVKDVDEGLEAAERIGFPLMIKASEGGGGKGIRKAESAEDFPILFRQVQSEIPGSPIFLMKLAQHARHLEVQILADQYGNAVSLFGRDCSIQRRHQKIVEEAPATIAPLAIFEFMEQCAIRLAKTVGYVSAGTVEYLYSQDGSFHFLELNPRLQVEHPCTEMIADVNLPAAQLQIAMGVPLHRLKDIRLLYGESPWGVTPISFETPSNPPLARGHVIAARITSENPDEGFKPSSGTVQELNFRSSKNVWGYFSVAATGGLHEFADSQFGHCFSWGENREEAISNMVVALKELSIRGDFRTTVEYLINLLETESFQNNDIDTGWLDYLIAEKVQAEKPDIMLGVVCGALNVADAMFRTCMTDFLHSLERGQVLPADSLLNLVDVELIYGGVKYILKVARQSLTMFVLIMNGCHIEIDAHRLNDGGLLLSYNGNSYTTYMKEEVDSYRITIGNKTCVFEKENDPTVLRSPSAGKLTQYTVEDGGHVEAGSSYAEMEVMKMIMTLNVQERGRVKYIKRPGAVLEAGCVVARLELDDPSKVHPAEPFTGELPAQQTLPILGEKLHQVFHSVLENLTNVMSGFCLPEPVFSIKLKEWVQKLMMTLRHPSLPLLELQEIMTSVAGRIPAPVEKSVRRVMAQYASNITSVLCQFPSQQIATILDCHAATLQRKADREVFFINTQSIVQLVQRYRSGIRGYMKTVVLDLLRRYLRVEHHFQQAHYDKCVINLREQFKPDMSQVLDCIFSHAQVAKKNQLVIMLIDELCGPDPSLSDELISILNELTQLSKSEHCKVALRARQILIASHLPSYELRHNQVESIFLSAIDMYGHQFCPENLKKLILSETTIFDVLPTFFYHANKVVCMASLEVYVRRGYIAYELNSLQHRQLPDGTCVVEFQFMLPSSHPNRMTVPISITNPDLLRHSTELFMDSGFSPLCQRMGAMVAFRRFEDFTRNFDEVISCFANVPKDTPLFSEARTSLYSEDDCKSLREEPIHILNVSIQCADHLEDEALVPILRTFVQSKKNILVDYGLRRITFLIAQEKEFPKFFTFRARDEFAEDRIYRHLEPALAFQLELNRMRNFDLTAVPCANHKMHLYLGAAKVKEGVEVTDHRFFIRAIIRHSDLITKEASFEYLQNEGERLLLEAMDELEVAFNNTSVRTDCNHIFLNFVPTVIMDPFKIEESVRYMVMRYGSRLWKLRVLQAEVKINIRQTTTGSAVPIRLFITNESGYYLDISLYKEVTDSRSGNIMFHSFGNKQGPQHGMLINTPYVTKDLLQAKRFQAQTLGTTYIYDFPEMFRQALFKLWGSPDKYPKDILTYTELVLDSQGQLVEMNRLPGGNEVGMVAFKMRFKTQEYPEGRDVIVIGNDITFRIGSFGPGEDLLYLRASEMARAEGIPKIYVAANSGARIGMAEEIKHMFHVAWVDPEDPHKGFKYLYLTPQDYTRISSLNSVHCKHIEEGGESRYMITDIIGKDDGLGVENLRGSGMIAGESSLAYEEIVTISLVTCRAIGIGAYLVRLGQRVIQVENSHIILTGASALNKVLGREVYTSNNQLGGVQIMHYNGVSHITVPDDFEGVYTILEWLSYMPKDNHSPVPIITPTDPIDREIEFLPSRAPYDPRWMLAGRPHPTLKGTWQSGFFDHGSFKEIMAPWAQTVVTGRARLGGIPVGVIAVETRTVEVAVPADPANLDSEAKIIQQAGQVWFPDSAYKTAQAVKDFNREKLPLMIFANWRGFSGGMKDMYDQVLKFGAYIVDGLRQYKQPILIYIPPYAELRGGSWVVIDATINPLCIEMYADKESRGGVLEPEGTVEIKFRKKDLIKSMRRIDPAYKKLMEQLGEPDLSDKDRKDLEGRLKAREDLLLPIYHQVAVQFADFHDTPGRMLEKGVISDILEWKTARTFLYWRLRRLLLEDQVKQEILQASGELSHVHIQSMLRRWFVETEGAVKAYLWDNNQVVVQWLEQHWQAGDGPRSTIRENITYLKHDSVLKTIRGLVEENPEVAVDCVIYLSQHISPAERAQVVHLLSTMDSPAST
Chain of fungal (fACC2) ACC2 (Q00955 whole entry): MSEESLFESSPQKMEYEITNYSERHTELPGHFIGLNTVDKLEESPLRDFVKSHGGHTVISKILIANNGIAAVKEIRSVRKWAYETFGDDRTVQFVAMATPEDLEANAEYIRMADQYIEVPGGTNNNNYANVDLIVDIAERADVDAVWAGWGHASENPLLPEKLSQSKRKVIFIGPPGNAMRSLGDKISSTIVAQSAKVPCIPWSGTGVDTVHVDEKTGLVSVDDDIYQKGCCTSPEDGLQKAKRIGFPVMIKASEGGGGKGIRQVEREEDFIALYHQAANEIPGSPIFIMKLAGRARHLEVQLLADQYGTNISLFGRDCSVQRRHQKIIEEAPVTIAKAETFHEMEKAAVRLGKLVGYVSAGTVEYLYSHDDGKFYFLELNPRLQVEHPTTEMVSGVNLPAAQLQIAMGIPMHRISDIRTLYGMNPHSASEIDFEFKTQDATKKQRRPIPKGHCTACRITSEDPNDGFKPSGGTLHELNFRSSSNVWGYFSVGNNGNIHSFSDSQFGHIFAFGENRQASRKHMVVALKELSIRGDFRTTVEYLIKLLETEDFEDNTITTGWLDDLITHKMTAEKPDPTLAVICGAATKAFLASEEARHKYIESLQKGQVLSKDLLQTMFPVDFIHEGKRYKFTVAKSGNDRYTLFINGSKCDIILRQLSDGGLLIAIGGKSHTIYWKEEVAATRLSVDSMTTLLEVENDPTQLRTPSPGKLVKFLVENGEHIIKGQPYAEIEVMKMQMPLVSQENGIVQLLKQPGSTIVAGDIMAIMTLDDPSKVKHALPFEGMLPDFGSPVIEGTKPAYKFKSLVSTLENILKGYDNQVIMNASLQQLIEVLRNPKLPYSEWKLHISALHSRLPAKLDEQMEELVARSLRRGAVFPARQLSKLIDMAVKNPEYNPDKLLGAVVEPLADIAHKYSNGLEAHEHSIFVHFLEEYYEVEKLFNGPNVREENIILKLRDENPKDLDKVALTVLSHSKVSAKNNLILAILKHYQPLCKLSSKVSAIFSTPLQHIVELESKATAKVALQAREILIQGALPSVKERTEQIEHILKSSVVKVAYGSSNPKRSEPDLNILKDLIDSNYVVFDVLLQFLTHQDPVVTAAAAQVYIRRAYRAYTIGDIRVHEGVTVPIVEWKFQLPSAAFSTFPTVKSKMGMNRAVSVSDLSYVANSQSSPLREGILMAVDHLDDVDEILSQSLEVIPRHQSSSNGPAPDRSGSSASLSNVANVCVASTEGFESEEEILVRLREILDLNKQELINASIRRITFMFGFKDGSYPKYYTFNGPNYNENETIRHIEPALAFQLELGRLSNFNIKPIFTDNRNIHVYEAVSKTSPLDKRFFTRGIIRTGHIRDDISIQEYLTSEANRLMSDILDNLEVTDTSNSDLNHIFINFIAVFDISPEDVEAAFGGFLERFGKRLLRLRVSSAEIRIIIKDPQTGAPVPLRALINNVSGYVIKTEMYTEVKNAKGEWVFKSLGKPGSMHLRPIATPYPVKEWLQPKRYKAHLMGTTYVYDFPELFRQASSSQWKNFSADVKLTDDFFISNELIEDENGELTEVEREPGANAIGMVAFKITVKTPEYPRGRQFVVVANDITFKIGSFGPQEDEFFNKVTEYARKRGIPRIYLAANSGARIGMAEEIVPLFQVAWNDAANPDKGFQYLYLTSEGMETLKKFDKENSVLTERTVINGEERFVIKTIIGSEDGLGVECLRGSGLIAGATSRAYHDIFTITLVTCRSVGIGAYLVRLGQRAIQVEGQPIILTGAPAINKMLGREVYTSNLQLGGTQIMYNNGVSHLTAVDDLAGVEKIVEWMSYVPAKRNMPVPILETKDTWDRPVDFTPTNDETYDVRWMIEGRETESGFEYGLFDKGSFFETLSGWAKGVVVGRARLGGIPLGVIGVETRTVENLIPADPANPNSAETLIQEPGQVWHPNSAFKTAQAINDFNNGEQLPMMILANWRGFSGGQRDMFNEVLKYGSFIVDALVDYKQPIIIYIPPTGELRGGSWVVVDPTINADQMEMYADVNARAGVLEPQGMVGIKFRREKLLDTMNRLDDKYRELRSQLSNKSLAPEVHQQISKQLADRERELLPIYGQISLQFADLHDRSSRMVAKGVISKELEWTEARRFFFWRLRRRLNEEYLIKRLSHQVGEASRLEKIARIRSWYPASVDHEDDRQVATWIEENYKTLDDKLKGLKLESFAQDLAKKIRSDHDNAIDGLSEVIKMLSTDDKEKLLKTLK

SMILES | MIC ([1]; ATCC90028, 48 h) | MIC ([2]; ATCC6258, 48 h) | MIC ([3]; ATCC22019, 48 h) | IC50 [4] | IC50 [5] | IC90 ([6]; Table 4a) | IC90 ([6]; Table 4b) | IC90 ([7]; Table 4a) | IC90 ([7]; Table 4b) | IC90 [8] | Concentration at 90% Inhibition Fm ([8]; Table 4b, 48 hours) | IC90 [9, 14] | IC90 [9, 15] | IC90 ([10]; 48 h, Table 4a) | IC90 ([10]; 48 h, Table 4b) | IC90 ([11]; 48 h, Table 4a) | IC90 ([12]; Table 4a) | IC90 ([12]; Table 4b) | IC90 ([13]; Table 4a) | IC90 ([13]; Table 4b) | further results
COc1ccc(F)cc1[C@H](Cn1c(=O)n(C(C)C(=O)NC(C)C)c(=O)c2c(C)c(-n3cccn3)sc21)OC(C)C (stereo partly drawn) [Compound I-29, 2-(1-((R)-2-(5-fluoro-2-methoxyphenyl)-2-isopropoxy-ethyl)-5-methyl-2,4-dioxo-6-(1H-pyrazol-1-yl)-1,4-dihydrothieno[2,3-d]pyrimidin-3(2H)-yl)-N-isopropylpropanamide] | 1.1 to 2 µg/mL (≈ 1.92 to 3.5 µM) | 2.1 to 4 µg/mL (≈ 3.67 to 7 µM) | > 4.1 µg/mL | 10 to 40 nM | 0.6 to 3 nM | 2 µg/mL (≈ 3.5 µM) | 2 µg/mL (≈ 3.5 µM) | 2 µg/mL (≈ 3.5 µM) | 2 µg/mL (≈ 3.5 µM) | 0.4 µg/mL (≈ 0.7 µM) | A (“A” provided a compound concentration of 0.4 ppm at 90% inhibition of fungal pathogens) | 2 µg/mL (≈ 3.5 µM) | 2 µg/mL (≈ 3.5 µM) | > 50 µg/mL | > 50 µg/mL | > 50 µg/mL | 2 µg/mL (≈ 3.5 µM) | 2 µg/mL (≈ 3.5 µM) | 2 µg/mL (≈ 3.5 µM) | 2 µg/mL (≈ 3.5 µM) | IC90 ([11]; 48 h, Table 4b): > 50 µg/mL
COc1ccc(F)cc1[C@H](Cn1c(=O)n([C@H](C)C(=O)NC(C)C)c(=O)c2c(C)c(-n3cccn3)sc21)OC(C)C [Compound I-30, (R)-2-(1-((R)-2-(5-fluoro-2-methoxyphenyl)-2-isopropoxyethyl)-5-methyl-2,4-dioxo-6-(1H-pyrazol-1-yl)-1,4-dihydrothieno[2,3-d]pyrimidin-3(2H)-yl)-N-isopropylpropanamide] | 0.25 to 1 µg/mL (≈ 0.437 to 1.75 µM) | 0.25 to 1 µg/mL (≈ 0.437 to 1.75 µM) | 0.25 to 1 µg/mL (≈ 0.437 to 1.75 µM) | 3 to 10 nM | 0.6 to 3 nM | 2 µg/mL (≈ 3.5 µM) | 2 µg/mL (≈ 3.5 µM) | 2 µg/mL (≈ 3.5 µM) | 2 µg/mL (≈ 3.5 µM) | 0.4 µg/mL (≈ 0.7 µM) | A (“A” provided a compound concentration of 0.4 ppm at 90% inhibition of fungal pathogens) | 0.4 µg/mL (≈ 0.7 µM) | 0.4 µg/mL (≈ 0.7 µM) | > 50 µg/mL | > 50 µg/mL | > 50 µg/mL | 2 µg/mL (≈ 3.5 µM) | 2 µg/mL (≈ 3.5 µM) | 2 µg/mL (≈ 3.5 µM) | 2 µg/mL (≈ 3.5 µM) | IC90 ([11]; 48 h, Table 4b): > 50 µg/mL
COc1ccc(F)cc1[C@H](Cn1c(=O)n([C@@H](C)C(=O)N2CCCC2)c(=O)c2c(C)c(-n3cccn3)sc21)OC(C)C [Compound I-31, 1-((R)-2-(5-fluoro-2-methoxyphenyl)-2-isopropoxyethyl)-5-methyl-3-((S)-1-oxo-1-(pyrrolidin-1-yl)propan-2-yl)-6-(1H-pyrazol-1-yl)thieno[2,3-d]pyrimidine-2,4(1H,3H)-dione] |  |  |  | 3 to 10 nM | 0.6 to 3 nM | 2 µg/mL (≈ 3.43 µM) | 2 µg/mL (≈ 3.43 µM) | 0.4 µg/mL (≈ 0.685 µM) | 0.4 µg/mL (≈ 0.685 µM) |  |  |  |  |  |  |  | 0.4 µg/mL (≈ 0.685 µM) | 0.4 µg/mL (≈ 0.685 µM) | 0.4 µg/mL (≈ 0.685 µM) | 0.4 µg/mL (≈ 0.685 µM) | MIC ([1]; ATCC90028, 3 replicates, MIC recorded at 48 h): 1.1 to 2 µg/mL (≈ 1.88 to 3.43 µM); MIC ([2]; ATCC6258, 3 replicates, MIC recorded at 48 h): 2.1 to 4 µg/mL (≈ 3.6 to 6.85 µM); MIC ([3]; ATCC22019, 3 replicates, MIC recorded at 48 h): 2.1 to 4 µg/mL (≈ 3.6 to 6.85 µM); IC90 ([8]; Table 4a, 48 hours): 0.08 µg/mL (≈ 0.137 µM); IC90 ([8]; Table 4b, 48 hours): 0.08 µg/mL (≈ 0.137 µM); IC90 ([9]; Table 4a, 48 hours, read-out: Concentration at 90% Inhibition Fv): 0.4 µg/mL (≈ 0.685 µM); IC90 ([9]; Table 4b, 48 hours, read-out: Concentration at 90% Inhibition Fv): 0.4 µg/mL (≈ 0.685 µM); Concentration at 90% Inhibition St ([10]; Table 4b, 48 hours): D (“D” provided a compound concentration of >50 ppm at 90% inhibition of fungal pathogens); IC90 ([10]; Table 4a, 48 hours): > 50 µg/mL; IC90 ([11]; Table 4a, 48 hours): > 50 µg/mL; Concentration at 90% Inhibition Pc ([11]; Table 4b, 48 hours): D (“D” provided a compound concentration of >50 ppm at 90% inhibition of fungal pathogens)
